Each block holds one compound with its values, some of them ahead of it.
How the values were obtained:
All cell lines [1] = test: Monolayer growth inhibition, Alamar blue assay, range over all cell lines; type: cell-based; conditions: 120 h; range of IC50 over all cell lines of the table; read-out: IC50 Values - Alamar Blue (5 Days), Range, All
Excerpt: (§1) In all instances a single dose was given on day 1 of the experiment.

4T1 cells [2] = test: Soft agar growth inhibition assay; type: cell-based; conditions: Mus musculus, 4T1, 240 h, 4T1, 10 days; read-out: IC50 Values, 10 Days, Soft Agar
Procedure: Two agar (Alfa Aesar) solutions (0.8% w/v and 0.4% w/v) were prepared in ultrapure water. The 0.8% agar solution was mixed in equal volumes with 2× media previously prepared from powder (Life Technologies) following the manufacturer's instructions and filter sterilized. The 0.8% agar and media solution was added to 24 well plates (Mandel Scientific) at 500 μl per well. The plates were placed in a humidified incubator at 37° C. with 5% CO2. Next, the 0.4% agar solution was mixed in equal volumes with 2× media. Breast cancer cell lines were added to this solution to achieve a final concentration of 2×10^4 cells per well and […] was added to each well on top of the bottom agar and media layer. […] The plates were returned to the incubator for 10-32 days, with a re-dosing of compounds or DMSO every 7 days. After 10-32 days, colonies were counted in 3 different fields of view for each well.
Representative compounds described herein were tested in the soft agar growth inhibition assay against the 4T1 breast cancer cell line.

T47D cells [3] = test: Monolayer growth inhibition, Alamar blue assay; type: cell-based, Human; conditions: Homo sapiens, T47D (ER/PR), 5 days, single dose on day 1
Excerpt: as §1

SUM149-PTXR cells [4] = test: Monolayer growth inhibition, Alamar blue assay; type: cell-based, Human; conditions: Homo sapiens; SUM149-PTXR (TNBC, BRCA Mutant), 5 days, single dose on day 1
Excerpt: as §1

CD34+ cells = test: Colony forming unit hematopoietic stem cell assay; type: cell-based, human; conditions: Homo sapiens, Hematopoietic stem cell, 336 h, CD34+ HSC, 14 days; read-out: IC50 Values - 14 days, CFU Assay
Procedure: The hematopoietic colony forming cell assay was conducted based on a protocol outlined by StemCell Technologies. […] Following the addition of CD34^+ cells isolated from human cord blood or peripheral blood (StemCell Technologies) at a final concentration of 5×10^2 cells per dish, the tubes were vortexed and allowed to stand for 5 minutes at room temperature. Next, the MethoCult mixtures were dispensed into 35 mm dishes (Corning Incorporated) through blunt end needles (StemCell Technologies) and 5 ml syringes (BD Biosciences) at a volume of 1.1 ml per dish. The medium was evenly distributed across the surface of each dish by gentle tilting and rotation. The dishes were then placed in a 100 mm culture dish (Grenier Bio-One) containing additional 35 mm dishes with sterile water to maintain humidity. […] The number of myeloid and erythroid derived colonies in both the treated and control dishes were counted and compared.

4T1 cells [5] = test: Monolayer growth inhibition, crystal violet assay; type: cell-based; conditions: Mus musculus, 5 days, single dose on day 1
Excerpt: as §1

PC3 cells [6] = test: Monolayer growth inhibition, crystal violet assay; type: cell-based; conditions: Homo sapiens, PC-3; PC3 (Prostate), 5 days, single dose on day 1
Excerpt: as §1

MDA-MB-435 cells [7] = test: Monolayer growth inhibition, crystal violet assay; type: cell-based; conditions: Homo sapiens; MDA-MB-435 (Melanoma), 5 days, single dose on day 1
Excerpt: as §1

SUM149-PTXR cells [8] = test: Monolayer growth inhibition, crystal violet assay; type: cell-based; conditions: Homo sapiens; SUM149-PTXR (TNBC, BRCA Mutant), 5 days, single dose on day 1
Excerpt: as §1

SUM149 cells [9] = test: Monolayer growth inhibition, crystal violet assay; type: cell-based; conditions: Homo sapiens, 5 days, single dose on day 1
Excerpt: as §1

HCC1143 cells [10] = test: Monolayer growth inhibition, crystal violet assay; type: cell-based; conditions: Homo sapiens, 5 days, single dose on day 1
Excerpt: as §1

4T1 cells [11] = test: Monolayer growth inhibition, Alamar blue assay; type: cell-based; conditions: Mus musculus, 5 days, single dose on day 1
Excerpt: as §1

PC3 cells [12] = test: Monolayer growth inhibition, Alamar blue assay; type: cell-based; conditions: Homo sapiens, PC-3; PC3 (Prostate), 5 days, single dose on day 1
Excerpt: as §1

HCC1937 cells [13] = test: Monolayer growth inhibition, Alamar blue assay; type: cell-based; conditions: Homo sapiens, 5 days, single dose on day 1
Excerpt: as §1

MDA-MB-435 cells [14] = test: Monolayer growth inhibition, Alamar blue assay; type: cell-based; conditions: Homo sapiens, 5 days, single dose on day 1
Excerpt: as §1

SUM149 cells [15] = test: Monolayer growth inhibition, Alamar blue assay; type: cell-based; conditions: Homo sapiens, 5 days, single dose on day 1
Excerpt: as §1

HCC1143 cells [16] = test: Monolayer growth inhibition, Alamar blue assay; type: cell-based; conditions: Homo sapiens, 5 days, single dose on day 1
Excerpt: as §1

MDA-MB-468 cells [17] = test: Monolayer growth inhibition, Alamar blue assay; type: cell-based; conditions: Homo sapiens, 5 days, single dose on day 1
Excerpt: as §1

JIMT-1 cells [18] = test: Monolayer growth inhibition, Alamar blue assay; type: cell-based; conditions: Homo sapiens, 5 days, single dose on day 1
Excerpt: as §1

HCC1937 cells [19] = test: Monolayer growth inhibition, crystal violet assay; type: cell-based; conditions: Homo sapiens, 5 days, single dose on day 1
Excerpt: (§2) In all instances a single dose was given on day 1 of the experiment. […] Complete (100%) growth suppression was achievable with several of the compounds in multiple different cell lines.

T47D cells [20] = test: Monolayer growth inhibition, crystal violet assay; type: cell-based; conditions: Homo sapiens, T47D (ER/PR), 5 days, single dose on day 1
Excerpt: as §2

MDA-MB-468 cells [21] = test: Monolayer growth inhibition, crystal violet assay; type: cell-based; conditions: Homo sapiens, 5 days, single dose on day 1
Excerpt: as §2

JIMT-1 cells [22] = test: Monolayer growth inhibition, crystal violet assay; type: cell-based; conditions: Homo sapiens, 5 days, single dose on day 1
Excerpt: as §2

All cell lines [23] = test: Monolayer growth inhibition, crystal violet assay, range over all cell lines; type: cell-based; conditions: 120 h; range of IC50 over all cell lines of the table; read-out: IC50 Values - Crystal Violet (5 Days), Range, All
Excerpt: as §2

MDA-MB-231 cells [24] = test: Monolayer growth inhibition, crystal violet assay; type: cell-based; conditions: Homo sapiens; MDA-MB-231 (TNBC), 5 days, single dose on day 1
Excerpt: as §1

MDA-MB-231 cells [25] = test: Monolayer growth inhibition, Alamar blue assay; type: cell-based; conditions: Homo sapiens; MDA-MB-231 (TNBC), 5 days, single dose on day 1
Excerpt: as §1

[26] = SUM149, SUM149 (TNBC, BRCA Mutant)
[27] = HCC1937, HCC1937 (TNBC, BRCA Mutant)

IC50 (4T1 cells [2]): 3.8 µM
IC50 (T47D cells [3]; T47D): 7.8 ± 3.7 µM
IC50 (CD34+ cells): 23.8 µM
IC50 (4T1 cells [5]; 4T1, 4T1 (TNBC)): 6.9 ± 3 µM
IC50 (PC3 cells [6]): 5.9 ± 1.4 µM
IC50 (MDA-MB-435 cells [7]): 8.2 ± 2.5 µM
IC50 (HCC1143 cells [10]; HCC1143, HCC1143 (TNBC)): 12.6 ± 3.4 µM
IC50 (4T1 cells [11]; 4T1, 4T1 (TNBC)): 8.8 ± 2.1 µM
IC50 (PC3 cells [12]): 11.5 ± 3.4 µM
IC50 (HCC1937 cells [13]; [27]): 9.7 ± 3.9 µM
IC50 (MDA-MB-435 cells [14]; MDA-MB-435, MDA-MB-435 (Melanoma)): 13.7 ± 3.4 µM
IC50 (HCC1143 cells [16]; HCC1143, HCC1143 (TNBC)): 3.6 ± 2.7 µM
IC50 (MDA-MB-468 cells [17]; MDA-MB-468, MDA-MB-468 (TNBC)): 13.3 ± 4.1 µM
IC50 (HCC1937 cells [19]; [27]): 12 ± 0.2 µM
IC50 (T47D cells [20]; T47D): 8.5 ± 0.7 µM
IC50 (MDA-MB-468 cells [21]; MDA-MB-468, MDA-MB-468 (TNBC)): 11.3 ± 0.7 µM
Compound: C[C@@H]1CNC(=O)c2cc3ccc(NC(=O)c4cnn(Cc5ccccc5)c4)nc3n21 [Compound 15, (R)-1-benzyl-N-(9-methyl-6-oxo-6,7,8,9-tetrahydropyrido[3′,2′:4,5]pyrrolo[1,2-a]pyrazin-2-yl)-1H-pyrazole-4-carboxamide]
IC50 (All cell lines [1]): 3.6 to 21.3 µM
IC50 (SUM149-PTXR cells [4]): 9.2 ± 3 µM
IC50 (SUM149-PTXR cells [8]): 8.8 ± 2.2 µM
IC50 (SUM149 cells [9]; [26]): 9.9 ± 3.1 µM
IC50 (SUM149 cells [15]; [26]): 11.7 ± 2.8 µM
IC50 (JIMT-1 cells [18]; JIMT-1, JIMT-1 (HER2)): 8.3 ± 1.8 µM
IC50 (JIMT-1 cells [22]; JIMT-1, JIMT-1 (HER2)): 11.2 ± 0.2 µM
IC50 (All cell lines [23]): 5.9 to 21 µM

IC50 (T47D cells [3]): 5.7 ± 2.1 µM
IC50 (4T1 cells [5]; 4T1 (TNBC)): 2 ± 0.6 µM
IC50 (PC3 cells [6]): 2.7 ± 1.2 µM
IC50 (MDA-MB-435 cells [7]): 1 ± 0.3 µM
IC50 (HCC1143 cells [10]; HCC1143 (TNBC)): 8.9 ± 3.2 µM
IC50 (MDA-MB-231 cells [24]): 5.1 ± 2 µM
IC50 (4T1 cells [11]; 4T1 (TNBC)): 3.8 ± 1.7 µM
IC50 (PC3 cells [12]): 6 ± 3.2 µM
IC50 (HCC1937 cells [13]; HCC1937 (TNBC, BRCA Mutant)): 6.8 ± 1.3 µM
IC50 (MDA-MB-435 cells [14]; MDA-MB-435 (Melanoma)): 1.2 ± 1 µM
IC50 (HCC1143 cells [16]; HCC1143 (TNBC)): 5 ± 1.7 µM
IC50 (MDA-MB-231 cells [25]): 10.3 ± 0.7 µM
IC50 (MDA-MB-468 cells [17]; MDA-MB-468 (TNBC)): 2.1 ± 1.1 µM
IC50 (HCC1937 cells [19]; HCC1937 (TNBC, BRCA Mutant)): 7.3 ± 3.2 µM
IC50 (T47D cells [20]): 6.7 ± 1.6 µM
IC50 (MDA-MB-468 cells [21]; MDA-MB-468 (TNBC)): 1.6 ± 0.7 µM
Compound: C[C@@H]1CNC(=O)c2cc3ccc(C(=O)Nc4cnn(Cc5ccccc5N)c4)nc3n21 [Compound 17, (R)—N-(1-(2-aminobenzyl)-1H-pyrazol-4-yl)-9-methyl-6-oxo-6,7,8,9-tetrahydropyrido[3′,2′:4,5]pyrrolo[1,2-a]pyrazine-2-carboxamide]
IC50 (All cell lines [1]): 1.2 to 12.6 µM
IC50 (SUM149-PTXR cells [4]): 4.2 ± 1.5 µM
IC50 (SUM149-PTXR cells [8]): 5.2 ± 0.6 µM
IC50 (SUM149 cells [9]; SUM149 (TNBC, BRCA Mutant)): 5.3 ± 2.2 µM
IC50 (SUM149 cells [15]; SUM149 (TNBC, BRCA Mutant)): 8.3 ± 4.9 µM
IC50 (JIMT-1 cells [18]; JIMT-1 (HER2)): 12.6 ± 5.9 µM
IC50 (JIMT-1 cells [22]; JIMT-1 (HER2)): 7.4 ± 2.5 µM
IC50 (All cell lines [23]): 1 to 8.9 µM
